Measured values reported in patent publication US20120231007A1, “MODULATORS OF CELL CYCLE PROGRESSION” (SINGAPORE HEALTH SERVICES PTE. LTD., priority 2009, published 2012).
Peptide text beside a SMILES is read from it. * marks the point of attachment. Cbz = O=C(OCc1ccccc1)*

Tests used:
p27^Kip1 = experiment: Western blot of p27^Kip1 protein; format: cell-based, human; details: MG132 100 nM added to cells over-expressing Ect2
Procedure: Cell Culture and Transfection. A172, U87, U118, U373 and T98G human glioma cells (ATCC, Manassas, Va.) were cultured in Dulbecco's modified Eagle's medium (DMEM) supplemented with 10% fetal bovine serum (Hyclone, South Logan, Utah). Cells were synchronised at quiescence through serum starvation. Full-length human Ect2 was cloned into the expression vector pXJ41 using EcoRI and BamHI digestion. The Ect2 truncation mutants ΔN-Ect2-DH/PH/C, ΔN-Ect2-DH/PH and ΔN-Ect2-DH were cloned in pCTV3-HA3. p27-PF, p27-ApaI, pGVB2 were gifts. For transient expression, cells were seeded at 40% confluence and transfected with 1.5 μg of DNA using Polyfect transfection reagent (Qiagen GmBH, Hilden, Germany). For knockdown experiments, Ect2 siRNAs were transfected into cells using SilentFect (Bio-Rad, Hercules, Calif.). RhoA inhibitor C3 exoenzyme (Upstate Biotech, Billerica, Mass.) was introduced into cells using Lipofectamine2000 (Invitrogen, Carlsbad, Calif.) at a concentration of 10 mg/ml. Cells were treated with the proteasome inhibitor MG132 (Calbiochem, San Diego, Calif.) at a concentration of 100 nM.
Western blot analysis. Whole cell lysates were prepared at the indicated time points following treatment. […] Protein quantity was determined by the Bradford Assay Reagent (Bio-Rad). […]

U118 glioma cells = experiment: Warburg effect: Western blot of AMPK phosphorylation, mTOR activity and ECT2 expression; format: cell-based, human
Procedure: Western blot analysis. Whole cell lysates were prepared at the indicated time points following treatment. Cells were lysed in 0.1% SDS buffer (50 mM Tris-HCl, pH7.5, 150 mM NaCl, 1% NP-40, 1% sodium deoxycholate, 0.1 mM sodium vanadate, 50 mM b-glycerophosphate, 1 mM NaF) supplemented with protease inhibitor cocktail (Roche, Basel, Switzerland). Lysates were clarified by centrifugation at 13,000 rpm for 20 min at 4° C. Protein quantity was determined by the Bradford Assay Reagent (Bio-Rad). Typically, 50 μg of protein was resolved on either 6% or 12% SDS-polyacrylamide and transferred onto PVDF membranes (Millipore, Billerica, Mass.). Membranes were probed using antibodies specific to Ect2 and other proteins listed in the attached document. Protein bands were visualized by chemiluminescence using the ECL Western blotting system (Amersham, Arlington Heights, Ill.) according to manufacturer's protocol. Actin was used as loading control.
The use of ECT2 inhibitor sensitizes glioma cell stochemotherapy treatment such as with Temozolomide (FIG. 14). ECT2 regulation by RTK/mTOR pathway through EGFR inhibition (FIG. 18) with Erlotinib (10 uM) (FIG. 18A), Akt inhibition with API2 (10 uM), and mTOR inhibition with Rapamycin (50 nM) (FIG. 18B) Warburg effect and ECT2 regulation was examined in U118 glioma cells. The cells were treated with glycolysis or oxidative phosphorylation inhibitors [2-Deoxy-glucose (2DG) and oligomycin, respectively]. Filipin III was used to permeabilise mitochondria to provide exogenous source of pyruvate for the Tricarboxylic acid (TCA) cycle. Cellular energy level was measured by Western blot analysis of AMPK phosphorylation.

SMILES	Ect2-mediated suppression of p27^Kip1 (p27^Kip1)	ECT2 expression (U118 glioma cells)	mTOR activity (U118 glioma cells)	phosphorylated AMPK (U118 glioma cells; glycolysis inhibition)
CC(C)C[C@@H](C=O)NC(=O)[C@H](CC(C)C)NC(=O)[C@H](CC(C)C)NC(=O)OCc1ccccc1 [MG132] (Cbz-Leu-Leu-Leu-aldehyde)	completely abrogated			
CC[C@H]1/C=C/C=C/C[C@@H](C)[C@H](O)[C@@](C)(O)C(=O)[C@@H](C)[C@H](O)[C@@H](C)C(=O)[C@@H](C)[C@H](O)[C@@H](C)/C=C/C(=O)O[C@@H]2[C@H](C)[C@H](CC1)O[C@]1(CC[C@H](C)[C@H](C[C@@H](C)O)O1)[C@H]2C [oligomycin]		did not affect	did not affect	
O=CC[C@@H](O)[C@H](O)[C@H](O)CO [2DG, 2-Deoxy-D-glucose]		reduced	significantly lower	higher level
